Experimental data taken from patent US5605906A, “Cannabinoid receptor agonists” (Merck Frosst Canada, Inc., priority 1995, dated 1997).
Several values for one entry are separate records, joined by “and”; a condition that tells them apart may be missing. Equal values may be shown once.

Columns and labels:
[1] = molecular target: T1, human central cannabinoid (CB 1) receptor (Homo sapiens, UniProt P21554); assay: CB1 receptor binding assay ([3H]CP55940, HEK293(EBNA) membranes); details: [3H]CP55940 0.6 nM, pH 7.4, 30 °C, 60 min
T1 construct: expressed in transfected cells; host or cells: HEK293(EBNA)
T1 sequence (P21554 whole entry): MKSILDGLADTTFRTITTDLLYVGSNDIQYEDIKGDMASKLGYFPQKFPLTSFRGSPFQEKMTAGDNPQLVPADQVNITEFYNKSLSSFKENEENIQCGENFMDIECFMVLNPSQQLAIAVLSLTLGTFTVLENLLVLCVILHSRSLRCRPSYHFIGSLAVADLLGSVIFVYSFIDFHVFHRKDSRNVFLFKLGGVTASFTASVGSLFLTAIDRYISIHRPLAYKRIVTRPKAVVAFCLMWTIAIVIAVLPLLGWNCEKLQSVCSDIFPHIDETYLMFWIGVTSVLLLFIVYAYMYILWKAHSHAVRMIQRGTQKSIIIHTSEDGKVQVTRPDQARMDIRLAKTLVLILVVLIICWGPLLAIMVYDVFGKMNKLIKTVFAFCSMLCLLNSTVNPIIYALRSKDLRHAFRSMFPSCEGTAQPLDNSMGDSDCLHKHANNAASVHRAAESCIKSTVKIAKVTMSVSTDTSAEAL
Experimental: The compound of Formula I can be tested using the following assays to determine their affinity for binding to the cannabinoid receptors.
Stable cell lines were constructed expressing either the human peripheral cannabinoid (CB2) receptor or the human central cannabinoid (CB 1) receptor as described previously (Gerard. et al., Molecular cloning of a human cannabinoid receptor which is also expressed in testis. Biochem. J. (279)129-134, 1991.). […]
CB2 receptor binding assays were performed in 0.2 ml of 10 mM HEPES/KOH (pH 7.4) containing 1 mM EDTA, 0.3 mg/ml human serum albumin (HSA), 1 mM MgCl2, and 2.4 nM [^3 H]Win 55212-2 (Dupont-NEN Canada, Mississauga, ON). […] The residual [^3 H]Win 55212-2 or [^3 H]CP55940(-) bound to the filters was determined by liquid scintillation counting following a 6h equilibration in 5 ml Biofluor O) (Dupont-NEN Canada, Mississauga, ON) scintillation cocktail (efficiency for tritium was approximately 55%). […]

[2] = molecular target: T2, human peripheral cannabinoid (CB2) receptor (Homo sapiens, UniProt P34972); assay: CB2 functional assay: cAMP assay in CHO-K1 cells expressing the CB2 receptor; assay type: cell-based; details: forskolin, 37 °C, 15 min
T2 construct: expressed in transfected cells; host or cells: CHO-K1
T2 sequence (P34972 whole entry): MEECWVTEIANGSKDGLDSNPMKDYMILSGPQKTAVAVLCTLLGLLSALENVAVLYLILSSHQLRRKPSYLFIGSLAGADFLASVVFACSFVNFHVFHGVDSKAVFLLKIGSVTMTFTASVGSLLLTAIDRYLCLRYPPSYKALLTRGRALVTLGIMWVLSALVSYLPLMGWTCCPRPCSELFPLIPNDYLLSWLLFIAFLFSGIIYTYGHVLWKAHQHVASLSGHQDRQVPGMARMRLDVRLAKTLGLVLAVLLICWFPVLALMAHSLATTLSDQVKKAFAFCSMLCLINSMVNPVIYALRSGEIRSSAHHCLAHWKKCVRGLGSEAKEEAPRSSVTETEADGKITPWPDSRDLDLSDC
Experimental: Stable cell lines were constructed expressing either the human peripheral cannabinoid (CB2) receptor or the human central cannabinoid (CB 1) receptor as described previously (Gerard. et al., Molecular cloning of a human cannabinoid receptor which is also expressed in testis. Biochem. J. (279)129-134, 1991.). Membranes were prepared from CHO-K1 cells stably expressing the CB2 receptor and HEK293(EBNA) cells stably expressing the CB 1 receptor by differential centrifugation (1000×g for 10 min, then 100,000×g for 30 min, both at 4° C.) following lysis of the cells by nitrogen cavitation at 800 psi for 15 min on ice, as previously described (Frey, E.A., et al., Characterization of the leukotriene D4 receptor in dimethylsulphoxide-dufferentiated U937 cells: comparison with the leukotriene D4 receptor in human-lung and guinea-pig lung. Eur. J. Pharma. (244) 239-250, 1993.). […]
CB2--CHO-K1 cells were seeded at 10^6 cells per 175 cm^2 T-flask in MEM alpha growth medium (MEM alpha medium containing 25 mM HEPES/KOH (pH 7.4), 10% heat inactivated fetal bovine serum, 20 units/ml penicillin G, 20 mg/ml streptomycin sulfate and 500 mg/ml G418) (GIBCO-BRL Canada, Burlington, ON). […] Cell viability was always >96% as determined by trypan blue exclusion. […]

[3] = molecular target: T2, human peripheral cannabinoid (CB2) receptor; assay: CB2 receptor binding assay ([3H]Win 55212-2, CHO-K1 membranes); details: [3H]Win 55212-2 2.4 nM, pH 7.4, 30 °C, 40 min

Row | Compound | IC50 [1] | EC50 [2] | Ki [3]
1 | COc1ccc2c(c1)N(C)C(C)(C)[C@@H]1CC[C@@H](C)C[C@@H]21 [Example 1, (6aR,9R,10aR)-3-Methoxy-5,6,6,9-tetramethyl-5,6,6a,7,8,9,10,10a-octahydro-phenanthridine] | 22300 nM and 27400 nM | 68 nM and 149 nM | 73 nM and 55 nM
2 | CCCCCCC(C)(C)c1cc(O)c2c(c1)OC(C)(C)[C@@H]1CC=C(CO)C[C@@H]21 [HU-210, reference compound] | 2.5 ± 0.2 nM | – | –
